For the assay, the target named is Complement factor D (Homo sapiens, UniProt P00746). Description: Human Factor D Assay: Human Factor D (purified from human serum, Complement Technology, Inc.) at 80 nM final concentration is incubated with test compound at various concentrations for 5 min at room temperature in 50 mM Tris, 1M NaCl, pH 7.5. A synthetic substrate Z-L-Lys-SBzl and DTNB (Ellman's reagent) are added to final concentrations of 100 μM each. […] IC50 values are calculated by nonlinear regression of complement Factor D reaction rates as a function of test compound concentration.
Complement factor D, sequence (P00746 whole entry): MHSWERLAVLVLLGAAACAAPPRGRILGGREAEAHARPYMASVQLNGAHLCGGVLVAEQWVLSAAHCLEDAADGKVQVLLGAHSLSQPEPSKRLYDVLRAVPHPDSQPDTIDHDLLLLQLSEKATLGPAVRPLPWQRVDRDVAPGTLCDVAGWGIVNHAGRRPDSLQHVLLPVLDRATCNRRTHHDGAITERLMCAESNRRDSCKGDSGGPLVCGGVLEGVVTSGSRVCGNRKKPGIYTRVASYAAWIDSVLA
Take `CC(=O)c1nn(CC(=O)N2C[C@H](F)C[C@H]2C(=O)NCCOC(F)(F)F)c2ccc(-c3cnc(C)nc3)cc12`: the IC50 – broadly, the concentration that gives 50% inhibition – was below 1000 nM.

Turning to `NC(=O)c1cc(-c2ccco2)n(CC(=O)N2C[C@H](F)C[C@H]2C(=O)Nc2cccc(Br)n2)n1`, the IC50 is below 1000 nM.

Consider `CC(=O)c1nn(CC(=O)N2C[C@H](F)C[C@H]2C(=O)NCCC(C)(C)C)c2ccc(-c3cnc(C)nc3)cc12`, for which the IC50 was below 1000 nM.

Consider `CC(=O)c1nn(CC(=O)N2C[C@H](F)C[C@H]2C(=O)Nc2cccc(-c3ccccc3Cl)c2F)c2ccc(N3C[C@H]4CCCC[C@H]4C3)cc12`, for which the IC50 is below 1000 nM.

As for `CC(=O)c1nn(CC(=O)N2C[C@H](F)C[C@H]2C(=O)O)c2ccc(-c3cnc(C)nc3)cc12`, the IC50 is above 10000 nM.

With `Cc1cccc(CC(O)[C@@H]2C[C@@H](F)CN2C(=O)Cn2cc(C(N)=O)c3cc(-c4cnc5cc(C)nn5c4)ccc32)n1` (stereo partly specified), the IC50 was above 10000 nM.
